Here are results for five compounds from ChEMBL document CHEMBL6127023, “3-Tetrazolyl-β-carboline derivatives as potential neuroprotective agents” (Bioorg Med Chem, 2024).

Molecules are shown by their SMILES. The source made the active and inactive calls. No cut-off for these calls is given here.

Data set [1] deals with SH-SY5Y. Put plainly: Cytotoxicity against human SH-SY5Y cells assessed as decrease in neutral red dye uptake at 10 uM incubated for 24 hrs relative to control. It counts as toxicity, cell-based. More on the design: scale not given: the % may be the effect or the level left.
In data set [2] the test system is SH-SY5Y. In words: Cytotoxicity against human SH-SY5Y cells assessed as decrease in neutral red dye uptake at 25 uM incubated for 24 hrs relative to control. It counts as toxicity, cell-based. Also on record: scale not given: the % may be the effect or the level left.
In data set [3] the test system is SH-SY5Y. In words: Cytotoxicity against human SH-SY5Y cells assessed as decrease in neutral red dye uptake at 50 uM incubated for 24 hrs relative to control. It counts as toxicity, cell-based. More on the design: scale not given: the % may be the effect or the level left.
The subject of data set [4] is SH-SY5Y. In words: Cytotoxicity against human SH-SY5Y cells assessed as decrease in resazurin dye at 25 uM incubated for 24 hrs relative to control. It counts as toxicity, cell-based. More on the design: scale not given: the % may be the effect or the level left.
Data set [5] concerns SH-SY5Y. In words: Cytotoxicity against human SH-SY5Y cells assessed as decrease in resazurin dye at 50 uM incubated for 24 hrs relative to control. It counts as toxicity, cell-based. More on the design: scale not given: the % may be the effect or the level left. (Resazurin is reduced to fluorescent resorufin, in cell work by metabolically active cells.)
Data set [6] concerns SH-SY5Y. In words: Cytotoxicity against human SH-SY5Y cells at 5 uM incubated for 24 hrs. Format: toxicity, cell-based.
Data set [7] concerns SH-SY5Y. In words: Neuroprotective effect in MPP+-induced cytotoxicity in human SH-SY5Y cells assessed as increase in neutral red dye uptake at 1 uM preincubated with 500 uM MPP+ for 30 mins followed by compound treatment for 24 hrs (reference value: 83.3 %). It counts as functional. The following applies: time 24.5 hrs.
Data set [8] deals with SH-SY5Y. Put plainly: Neuroprotective effect in MPP+-induced cytotoxicity in human SH-SY5Y cells assessed as increase in neutral red dye uptake at 2.5 uM preincubated with 500 uM MPP+ for 30 mins followed by compound treatment for 24 hrs (reference value: 83.3 %). It counts as functional. To be noted: time 24.5 hrs.
Data set [9] deals with SH-SY5Y. Put plainly: Neuroprotective effect in MPP+-induced cytotoxicity in human SH-SY5Y cells assessed as increase in neutral red dye uptake at 5 uM preincubated with 500 uM MPP+ for 30 mins followed by compound treatment for 24 hrs (reference value: 83.3 %). Format: functional. The following applies: time 24.5 hrs.
Data set [10] concerns SH-SY5Y. In words: Neuroprotective effect in MPP+-induced cytotoxicity in human SH-SY5Y cells assessed as increase in neutral red dye uptake at 1 uM preincubated with 1000 uM MPP+ for 30 mins followed by compound treatment for 24 hrs (reference value: 75.8 %). It counts as functional. To be noted: time 24.5 hrs.
Data set [11] concerns SH-SY5Y. Put plainly: Neuroprotective effect in MPP+-induced cytotoxicity in human SH-SY5Y cells assessed as increase in neutral red dye uptake at 2.5 uM preincubated with 1000 uM MPP+ for 30 mins followed by compound treatment for 24 hrs (reference value: 75.8 %). It counts as functional. To be noted: time 24.5 hrs.
The test system of data set [12] is SH-SY5Y. Put plainly: Neuroprotective effect in MPP+-induced cytotoxicity in human SH-SY5Y cells assessed as increase in neutral red dye uptake at 5 uM preincubated with 1000 uM MPP+ for 30 mins followed by compound treatment for 24 hrs (reference value: 75.8 %). It counts as functional. The following applies: time 24.5 hrs.
Data set [13] relates to SH-SY5Y. Put plainly: Neuroprotective effect in Fe3+-induced cytotoxicity in human SH-SY5Y cells assessed as increase in neutral red dye uptake at 1 uM preincubated with 500 uM FeNTA for 30 mins followed by compound treatment for 24 hrs (reference value: 81.4 %). It counts as functional. The following applies: time 24.5 hrs.
In data set [14] the test system is SH-SY5Y. Put plainly: Cytotoxicity against human SH-SY5Y cells upto 10 uM incubated for 24 hrs. It counts as toxicity, cell-based.
Data set [15] deals with SH-SY5Y. In words: Neuroprotective effect in MPP+-induced cytotoxicity in human SH-SY5Y cells assessed as increase in neutral red dye uptake at 1 uM preincubated with 500 uM MPP+ for 30 mins followed by compound treatment for 24 hrs (reference value: 81.1 %). Format: functional. To be noted: time 24.5 hrs.
In data set [16] the test system is SH-SY5Y. Put plainly: Neuroprotective effect in MPP+-induced cytotoxicity in human SH-SY5Y cells assessed as increase in neutral red dye uptake at 2.5 uM preincubated with 500 uM MPP+ for 30 mins followed by compound treatment for 24 hrs (reference value: 81.1 %). The following applies: time 24.5 hrs. Format: functional.
For data set [17], the system named is SH-SY5Y. Put plainly: Neuroprotective effect in MPP+-induced cytotoxicity in human SH-SY5Y cells assessed as increase in neutral red dye uptake at 5 uM preincubated with 500 uM MPP+ for 30 mins followed by compound treatment for 24 hrs (reference value: 81.1 %). Format: functional. The following applies: time 24.5 hrs.
Data set [18] relates to SH-SY5Y. In words: Neuroprotective effect in MPP+-induced cytotoxicity in human SH-SY5Y cells assessed as increase in neutral red dye uptake at 1 uM preincubated with 500 uM MPP+ for 30 mins followed by compound treatment for 24 hrs (reference value: 75 %). Format: functional. To be noted: time 24.5 hrs.
In data set [19] the test system is SH-SY5Y. In words: Neuroprotective effect in MPP+-induced cytotoxicity in human SH-SY5Y cells assessed as increase in neutral red dye uptake at 2.5 uM preincubated with 500 uM MPP+ for 30 mins followed by compound treatment for 24 hrs (reference value: 75 %). Format: functional. The following applies: time 24.5 hrs.
The subject of data set [20] is SH-SY5Y. In words: Neuroprotective effect in Fe3+-induced cytotoxicity in human SH-SY5Y cells assessed as increase in neutral red dye uptake at 1 to 10 uM preincubated with 500 to 1000 uM FeNTA for 30 mins followed by compound treatment for 24 hrs. Format: functional, cell-based. The following applies: dose 1-10 µM, time 24.5 hrs.
The test system of data set [21] is SH-SY5Y. In words: Cytotoxicity against human SH-SY5Y cells assessed as decrease in resazurin dye at 10 uM incubated for 24 hrs relative to control. It counts as toxicity, cell-based. More on the design: scale not given: the % may be the effect or the level left.
The subject of data set [22] is SH-SY5Y. Put plainly: Induction of ROS production in human SH-SY5Y cells at 50 uM incubated for 24 hrs by DCFH-DA probe based analysis relative to control. Format: functional.
The subject of data set [23] is SH-SY5Y. In words: Neuroprotective effect in MPP+-induced cytotoxicity in human SH-SY5Y cells assessed as increase in neutral red dye uptake at 2.5 uM preincubated with 500 uM MPP+ for 30 mins followed by compound treatment for 24 hrs (reference value: 83.9 %). Format: functional. The following applies: time 24.5 hrs.
Data set [24] has as its system SH-SY5Y. In words: Neuroprotective effect in MPP+-induced cytotoxicity in human SH-SY5Y cells assessed as increase in neutral red dye uptake at 1 uM preincubated with 1000 uM MPP+ for 30 mins followed by compound treatment for 24 hrs (reference value: 76.2 %). Format: functional. The following applies: time 24.5 hrs.
Data set [25] deals with SH-SY5Y. In words: Neuroprotective effect in MPP+-induced cytotoxicity in human SH-SY5Y cells assessed as increase in neutral red dye uptake at 2.5 uM preincubated with 1000 uM MPP+ for 30 mins followed by compound treatment for 24 hrs (reference value: 76.2 %). It counts as functional. To be noted: time 24.5 hrs.
Data set [26] has as its system SH-SY5Y. Put plainly: Neuroprotective effect in MPP+-induced cytotoxicity in human SH-SY5Y cells assessed as increase in neutral red dye uptake at 5 uM preincubated with 1000 uM MPP+ for 30 mins followed by compound treatment for 24 hrs (reference value: 76.2 %). It counts as functional. The following applies: time 24.5 hrs.
Data set [27] has as its system SH-SY5Y. In words: Neuroprotective effect in Fe3+-induced cytotoxicity in human SH-SY5Y cells assessed as increase in neutral red dye uptake at 2.5 to 5 uM preincubated with 1000 uM FeNTA for 30 mins followed by compound treatment for 24 hrs. The following applies: dose 2.5-5 µM, time 24.5 hrs. It counts as functional, cell-based.
Data set [28] deals with SH-SY5Y. In words: Cytotoxicity against human SH-SY5Y cells assessed as decrease in neutral red dye uptake upto 50 uM incubated for 24 hrs. Format: toxicity, cell-based.
The subject of data set [29] is SH-SY5Y. In words: Neuroprotective effect in MPP+-induced cytotoxicity in human SH-SY5Y cells assessed as increase in neutral red dye uptake at 1 to 10 uM preincubated with 500 uM MPP+ for 30 mins followed by compound treatment for 24 hrs. It counts as functional, cell-based. The following applies: dose 1-10 µM, time 24.5 hrs.
For data set [30], the system named is SH-SY5Y. Put plainly: Cytotoxicity against human SH-SY5Y cells assessed as decrease in resazurin dye upto 50 uM incubated for 24 hrs. Format: toxicity, cell-based.

As to `c1ccc(Cn2nnnc2-c2cc3c([nH]c4ccccc43)c(-c3ccccc3)n2)cc1`, the Activity with SH-SY5Y [1] is recorded as 85.6%; in the data set with SH-SY5Y [2], 81.3%; with SH-SY5Y [3] it was 65.9%; in the data set with SH-SY5Y [4], 74%; in the data set on SH-SY5Y [5] it was 59.3%; in the data set on SH-SY5Y [6], “Non-Toxic”. Further, the Activity came out at 91.4% in the data set on SH-SY5Y [7]; 92.1% with SH-SY5Y [8]; 93.5% in the data set on SH-SY5Y [9]; 87.1% in the data set on SH-SY5Y [10]; 84.6% in the data set with SH-SY5Y [11]; 89.1% with SH-SY5Y [12]. For the same compound, the Activity in the data set with SH-SY5Y [13] is 87.6%.
Consider `CN(C)c1ccc(-c2nc(-c3nnnn3Cc3ccccc3)cc3c2[nH]c2ccccc23)cc1`, for which the Activity result with SH-SY5Y [14] was “Non-Toxic”; with SH-SY5Y [3], 80.5%; in the data set on SH-SY5Y [15], 97.8%; with SH-SY5Y [16], 92.3%; with SH-SY5Y [17], 85.8%; in the data set with SH-SY5Y [18], 90.3%. Moreover, in the data set with SH-SY5Y [19], the Activity amounted to 83.6%. Besides, in the data set with SH-SY5Y [20], the outcome was inactive.
Turning to `Fc1ccc(-c2nc(-c3nnnn3Cc3ccccc3)cc3c2[nH]c2ccccc23)cc1`, the Activity with SH-SY5Y [1] is on record as 83.6%; with SH-SY5Y [2] it was 70.5%; in the data set with SH-SY5Y [3], 56.1%; in the data set on SH-SY5Y [21], 80%; with SH-SY5Y [4] it was 62.2%; in the data set with SH-SY5Y [5], 48.5%. Also, the Activity entry with SH-SY5Y [6] is on record as “Non-Toxic”; in the data set on SH-SY5Y [22], 108.2%; in the data set on SH-SY5Y [23], 91.4%; with SH-SY5Y [24], 84.8%; with SH-SY5Y [25] it was 83.4%; in the data set with SH-SY5Y [26], 83.2%. Further, in the data set with SH-SY5Y [27], the result was Active.
In the case of `O=[N+]([O-])c1cccc(-c2nc(-c3nnnn3Cc3ccccc3)cc3c2[nH]c2ccccc23)c1`, the results for the Activity entry in the data set on SH-SY5Y [14], in the data set on SH-SY5Y [5] and in the data set on SH-SY5Y [28] were “Non-Toxic”, 92.6% and “Non-Toxic”, respectively. For the same compound, the outcome in the data set with SH-SY5Y [29] was inactive.
Regarding `Clc1ccccc1-c1nc(-c2nnnn2Cc2ccccc2)cc2c1[nH]c1ccccc12`, the Activity entry with SH-SY5Y [14] is on record as “Non-Toxic”; in the data set with SH-SY5Y [2], 84%; in the data set with SH-SY5Y [3], 81.7%; in the data set on SH-SY5Y [30], “Non-Toxic”. The outcome in the data set on SH-SY5Y [29] was Active.
